Results as given in patent publication US12171753B2, “Crystalline forms of ALDH2 modulators” (SOPHROSYNE PHARMACEUTICALS LIMITED, priority 2021, dated 2024).
One block for each compound: values may come before it.

What was measured:
[1] = Polymorphic screen: suspending 50 mg of compound in solvent, suspension outcome; type: physicochemical; settings: left overnight
Procedure: The polymorphic screening of the compound of Formula IV-I was performed by suspending 50 mg of the compound of Formula IV-I in each of the solvents as described in Table 12 at a volume of 1.5 mL for all but water (1 mL) in a separate vial. The vials were sealed and the suspensions were left overnight. In the following day, the vials with the compound of Formula IV-I dissolved were opened and the solutions were left to evaporate at room temperature. The solid materials were collected after the complete evaporation of the solvent. In the vials where the compound of Formula IV-I was not fully dissolved, the mixtures were left to slurrying for another 96 h. The slurries were filtered and the obtained solids were analyzed.

[2] = tested on: subject suffering from alcohol use disorder; assay: Pharmaceutical composition administered to a subject suffering from alcohol use disorder; type: in vivo
Procedure: (§1) [drawing 31] and trifluorotriiodobenzene is administered to a subject suffering from alcohol use disorder. […] The subject is also found to have less cravings on the Visual Analogue Scale of Craving, which has 4 questions to assess domains of alcohol craving: the intention to drink, loss of control, relief craving, and urge intensity with a 0-20 point visual analogue scale for each item, with 0 indicating no craving and 20 indicating severe craving.
as §1, with “32]” for “31] and trifluorotriiodobenzene”

- Suspension outcome ([1]; 50 mg in 1 mL H2O): Dissolved
- Suspension outcome ([1]; 50 mg in 1.5 mL 1-propanol): Slurry
- Suspension outcome ([1]; 50 mg in 1.5 mL 2-propanol): Slurry
- Suspension outcome ([1]; 50 mg in 1.5 mL Acetone): Slurry
- Suspension outcome ([1]; 50 mg in 1.5 mL Acetonitrile): Slurry
- Suspension outcome ([1]; 50 mg in 1.5 mL Chloroform): Dissolved
- Suspension outcome ([1]; 50 mg in 1.5 mL Cyclohexane): Slurry
- Suspension outcome ([1]; 50 mg in 1.5 mL Dichloromethane): Dissolved
- Suspension outcome ([1]; 50 mg in 1.5 mL EtOAc): Slurry
- Suspension outcome ([1]; 50 mg in 1.5 mL EtOH): Dissolved
- Suspension outcome ([1]; 50 mg in 1.5 mL Ethyl ether): Slurry
- Suspension outcome ([1]; 50 mg in 1.5 mL Isopropyl acetate): Slurry
- Suspension outcome ([1]; 50 mg in 1.5 mL MeOH): Dissolved
- Suspension outcome ([1]; 50 mg in 1.5 mL Methyl acetate): Slurry
- Suspension outcome ([1]; 50 mg in 1.5 mL Nitromethane): Dissolved
- Suspension outcome ([1]; 50 mg in 1.5 mL Octane): Slurry
- Suspension outcome ([1]; 50 mg in 1.5 mL THF): Slurry
- Suspension outcome ([1]; 50 mg in 1.5 mL Toluene): Slurry
- Suspension outcome ([1]; 50 mg in 1.5 mL n-hexane): Slurry
- Suspension outcome ([1]; 50 mg in 1.5 mL n-pentane): Slurry
SMILES: C[S+]([O-])C(=O)N1CCC(O)CC1 (centres unmarked) [Formula IV-I, 1-S-Methyl 1-S-oxo 4-hydroxy-1-piperidinecarbothioate]

SMILES: C[S+]([O-])C(=O)N1CCC(O)CC1 (centres unmarked) [drawing 31]
- Cravings on the Visual Analogue Scale of Craving ([2]; 4 questions, 0-20 point scale per item): less cravings
- Craving scale after 2 weeks of treatment ([2]; after 2 weeks of being treated): reduction in the craving scale
- Alcohol consumed over a 90 day period ([2]; compared to a 90 day period prior to treatment): consume less alcohol
- Percentage of no heavy drinking days ([2]; during the period of treatment (e.g., 1 to 13 weeks)): increase in the percentage of no heavy drinking days
- Number of drinks consumed in the natural environment ([2]; first 13 days of medication period, timeline follow-back interview): reduction in the number of drinks
- Alcohol drinking of the treated subject ([2]; subject with alcohol use disorder): drink less or no alcohol
